Results from PubChem BioAssay (NCI).
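Cells were grown in 96-well plates and exposed to each compound for 48 hours at five concentrations; endpoints were interpolated linearly between bracketing concentrations, or set to the highest concentration if not reached. GI50 marks 50% less growth. TGI denotes the concentration required for complete inhibition of growth.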

What was measured:
Test in all cases: DTP human tumour cell line panel, 48 h
OVCAR-3 ovarian = system: OVCAR-3 ovarian
SF-268 CNS = system: SF-268 CNS
MALME-3M melanoma = system: MALME-3M melanoma
NCI-H460 lung = system: NCI-H460 lung
CCRF-CEM leukemia = system: CCRF-CEM leukemia
786-0 renal = system: 786-0 renal
BT-549 breast = system: BT-549 breast
KM12 colon = system: KM12 colon
T-47D breast = system: T-47D breast
ACHN renal = system: ACHN renal
SR leukemia = system: SR leukemia
M14 melanoma = system: M14 melanoma
LOX IMVI melanoma = system: LOX IMVI melanoma
NCI-H23 lung = system: NCI-H23 lung
HOP-62 NSCLC = system: HOP-62 NSCLC
HCT-116 colon = system: HCT-116 colon
COLO 205 colon = system: COLO 205 colon
A549 NSCLC = system: A549 NSCLC
MDA-MB-231 breast = system: MDA-MB-231 breast
OVCAR-5 ovarian = system: OVCAR-5 ovarian
PC-3 prostate = system: PC-3 prostate
IGROV1 ovarian = system: IGROV1 ovarian
NCI-H522 lung = system: NCI-H522 lung
A498 renal = system: A498 renal
SF-295 CNS = system: SF-295 CNS
RPMI-8226 leukemia = system: RPMI-8226 leukemia
SK-MEL-28 melanoma = system: SK-MEL-28 melanoma
SW-620 colon = system: SW-620 colon
CAKI-1 renal = system: CAKI-1 renal
HCT-15 colon = system: HCT-15 colon
NCI/ADR-RES ovarian = system: NCI/ADR-RES ovarian
UO-31 renal = system: UO-31 renal
EKVX NSCLC = system: EKVX NSCLC
HOP-92 NSCLC = system: HOP-92 NSCLC
SK-OV-3 ovarian = system: SK-OV-3 ovarian
NCI-H226 lung = system: NCI-H226 lung
MDA-MB-468 breast = system: MDA-MB-468 breast
SK-MEL-2 melanoma = system: SK-MEL-2 melanoma
HS 578T breast = system: HS 578T breast
UACC-257 melanoma = system: UACC-257 melanoma
K-562 leukemia = system: K-562 leukemia
DU-145 prostate = system: DU-145 prostate
SK-MEL-5 melanoma = system: SK-MEL-5 melanoma
OVCAR-8 ovarian = system: OVCAR-8 ovarian
SNB-19 CNS = system: SNB-19 CNS
TK-10 renal = system: TK-10 renal
HL-60(TB) leukemia = system: HL-60(TB) leukemia
MCF7 breast = system: MCF7 breast
MDA-MB-435 = system: MDA-MB-435
RXF 393 renal = system: RXF 393 renal
SNB-75 CNS = system: SNB-75 CNS
SF-539 CNS = system: SF-539 CNS
OVCAR-4 ovarian = system: OVCAR-4 ovarian
U251 CNS = system: U251 CNS
UACC-62 melanoma = system: UACC-62 melanoma
SN12C renal = system: SN12C renal
HT29 colon = system: HT29 colon
HCC-2998 colon = system: HCC-2998 colon
MOLT-4 leukemia = system: MOLT-4 leukemia

CCCCCCn1c(O)c(N=Nc2nc(-c3cc4ccccc4oc3=O)cs2)c2ccccc21
GI50 (OVCAR-3 ovarian): 16.9 µM
TGI (OVCAR-3 ovarian): 30.8 µM
GI50 (SF-268 CNS): 17.3 µM
TGI (SF-268 CNS): 38.6 µM
GI50 (MALME-3M melanoma): 16.9 µM
TGI (MALME-3M melanoma): 30.6 µM
GI50 (NCI-H460 lung): 15.1 µM
TGI (NCI-H460 lung): 30.1 µM
GI50 (CCRF-CEM leukemia): 10.4 µM
TGI (CCRF-CEM leukemia): 44.8 µM
GI50 (786-0 renal): 17.5 µM
TGI (786-0 renal): 31.4 µM
GI50 (BT-549 breast): 15.7 µM
TGI (BT-549 breast): 29.2 µM
GI50 (KM12 colon): 17.9 µM
TGI (KM12 colon): 33.8 µM
GI50 (T-47D breast): 12.7 µM
TGI (T-47D breast): 32.5 µM
GI50 (ACHN renal): 16.7 µM
TGI (ACHN renal): 30.3 µM
GI50 (SR leukemia): 7.19 µM
TGI (SR leukemia): 34.8 µM
GI50 (M14 melanoma): 15 µM
TGI (M14 melanoma): 28.8 µM
GI50 (LOX IMVI melanoma): 15.5 µM
TGI (LOX IMVI melanoma): 28.9 µM
GI50 (NCI-H23 lung): 12.2 µM
TGI (NCI-H23 lung): 24.6 µM
GI50 (HOP-62 NSCLC): 16.2 µM
TGI (HOP-62 NSCLC): 30.3 µM
GI50 (HCT-116 colon): 11.1 µM
TGI (HCT-116 colon): 23.4 µM
GI50 (COLO 205 colon): 11 µM
TGI (COLO 205 colon): 24.9 µM
GI50 (A549 NSCLC): 13.6 µM
TGI (A549 NSCLC): 27.7 µM
GI50 (MDA-MB-231 breast): 11.6 µM
TGI (MDA-MB-231 breast): 23.8 µM
GI50 (OVCAR-5 ovarian): 17.1 µM
TGI (OVCAR-5 ovarian): 30.8 µM
GI50 (PC-3 prostate): 10.6 µM
TGI (PC-3 prostate): 23.5 µM
GI50 (IGROV1 ovarian): 17.2 µM
TGI (IGROV1 ovarian): 30.9 µM
GI50 (NCI-H522 lung): 4.1 µM
TGI (NCI-H522 lung): 14 µM
GI50 (A498 renal): 19.7 µM
TGI (A498 renal): 33.9 µM
GI50 (SF-295 CNS): 14.4 µM
TGI (SF-295 CNS): 27.5 µM
GI50 (RPMI-8226 leukemia): 17.2 µM
TGI (RPMI-8226 leukemia): 53.1 µM
GI50 (SK-MEL-28 melanoma): 13.9 µM
TGI (SK-MEL-28 melanoma): 26.8 µM
GI50 (SW-620 colon): 16.6 µM
TGI (SW-620 colon): 31.3 µM
GI50 (CAKI-1 renal): 17.7 µM
TGI (CAKI-1 renal): 32.2 µM
GI50 (HCT-15 colon): 15.2 µM
TGI (HCT-15 colon): 28.7 µM
GI50 (NCI/ADR-RES ovarian): 15.1 µM
TGI (NCI/ADR-RES ovarian): 28.9 µM
GI50 (UO-31 renal): 14.1 µM
TGI (UO-31 renal): 27.1 µM
GI50 (EKVX NSCLC): 9.61 µM
TGI (EKVX NSCLC): 21.4 µM
GI50 (HOP-92 NSCLC): 11 µM
TGI (HOP-92 NSCLC): 23.9 µM
GI50 (SK-OV-3 ovarian): 15.2 µM
TGI (SK-OV-3 ovarian): 29.1 µM
GI50 (NCI-H226 lung): 14.9 µM
TGI (NCI-H226 lung): 28.1 µM
GI50 (MDA-MB-468 breast): 15.7 µM
TGI (MDA-MB-468 breast): 29.7 µM
GI50 (SK-MEL-2 melanoma): 18.3 µM
TGI (SK-MEL-2 melanoma): 32.4 µM
GI50 (HS 578T breast): 7.91 µM
TGI (HS 578T breast): 52.3 µM
GI50 (UACC-257 melanoma): 17.4 µM
TGI (UACC-257 melanoma): 31.7 µM
GI50 (K-562 leukemia): 15.2 µM
TGI (K-562 leukemia): 43.8 µM
GI50 (DU-145 prostate): 16.3 µM
TGI (DU-145 prostate): 30.1 µM
GI50 (SK-MEL-5 melanoma): 9.02 µM
TGI (SK-MEL-5 melanoma): 21.1 µM
GI50 (OVCAR-8 ovarian): 17.1 µM
TGI (OVCAR-8 ovarian): 32.1 µM
GI50 (SNB-19 CNS): 15.1 µM
TGI (SNB-19 CNS): 28.4 µM
GI50 (TK-10 renal): 19.4 µM
TGI (TK-10 renal): 33.6 µM
GI50 (HL-60(TB) leukemia): 18.8 µM
TGI (HL-60(TB) leukemia): 45.1 µM
GI50 (MCF7 breast): 12.1 µM
TGI (MCF7 breast): 25.9 µM
GI50 (MDA-MB-435): 17 µM
TGI (MDA-MB-435): 31.2 µM
GI50 (RXF 393 renal): 8.91 µM
TGI (RXF 393 renal): 21.1 µM
GI50 (SNB-75 CNS): 12 µM
TGI (SNB-75 CNS): 24.8 µM
GI50 (SF-539 CNS): 16 µM
TGI (SF-539 CNS): 29.5 µM
GI50 (OVCAR-4 ovarian): 14.2 µM
TGI (OVCAR-4 ovarian): 27.5 µM
GI50 (U251 CNS): 15.8 µM
TGI (U251 CNS): 29.9 µM
GI50 (UACC-62 melanoma): 13.7 µM
TGI (UACC-62 melanoma): 26.5 µM
GI50 (SN12C renal): 17.4 µM
TGI (SN12C renal): 31.2 µM
GI50 (HT29 colon): 11.6 µM
TGI (HT29 colon): 24.4 µM
GI50 (HCC-2998 colon): 16.2 µM
TGI (HCC-2998 colon): 29.7 µM
GI50 (MOLT-4 leukemia): 15.8 µM
TGI (MOLT-4 leukemia): 42.6 µM
